Experimental data reported in US20260201008A1, “SECRETIN-DERIVED GLP1R SELECTIVE AGONISTS” (GUBRA A/S, priority 2023, published 2026).
Numbered stars: 1 amine (or outer) side, 2 acyl side, 3 side chain; on linkers, the order of the positions; unused ones are H or OH. Square brackets hold non-standard residues; d marks the D form. Side chains are listed from the residue outwards. Peptide text beside a SMILES is read from it. * marks the point of attachment. C20 diacid = O=C(O)CCCCCCCCCCCCCCCCCCC(=O)*; γGlu = O=C(O)[C@H](CCC(=O)[*:2])N[*:1]; AEEA = NCCOCCOCC(=O)O; Aib = CC(C)(N)C(=O)O

Assays:
[1] = target: SCTR (Homo sapiens, UniProt P47872); test: hSCTR potency, cAMP accumulation in CHO-K1 cells stably overexpressing hSCTR; format: cell-based; parameters: alternatively Euroscreen ES-712-AF; FAST-0161L; host or cells: CHO-K1; conditions: cAMP accumulation, CHO-K1 cells overexpressing hSCTR; read-out: hSCTR pEC50 (converted)
Sequence of SCTR (P47872 23-440): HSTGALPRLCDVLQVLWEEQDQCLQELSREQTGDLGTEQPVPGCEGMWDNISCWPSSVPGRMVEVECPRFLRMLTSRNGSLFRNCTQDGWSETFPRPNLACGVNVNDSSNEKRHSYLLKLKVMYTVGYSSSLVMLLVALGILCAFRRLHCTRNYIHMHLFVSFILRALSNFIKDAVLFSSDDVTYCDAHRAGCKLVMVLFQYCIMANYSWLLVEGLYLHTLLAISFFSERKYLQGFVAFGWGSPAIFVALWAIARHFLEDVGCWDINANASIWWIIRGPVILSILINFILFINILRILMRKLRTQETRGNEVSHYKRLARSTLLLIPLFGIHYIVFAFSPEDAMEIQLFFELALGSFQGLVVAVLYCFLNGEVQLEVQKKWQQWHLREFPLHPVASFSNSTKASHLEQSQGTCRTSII
Outline: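 In this Gs cAMP assay, stably transfected CHO-K1 hSCTR cells were stimulated at room temperature for 30 min in IBMX-containing buffer. Time-resolved FRET gave the signal. Replicates were increased when the top concentration changed or EC50 values differed 5-fold.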

[2] = Fibril formation of crude library peptides (Thioflavin T); format: physicochemical; parameters: key: average ThT fluorescence emission at 480 nm (ex 450 nm), raw units; conditions: Physical stability of peptides
Outline: (§1)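 Fibril formation is scored as average ThT fluorescence from duplicate samples monitored for 72 h at 40° C with shaking stress. Turbidity is the absorbance at 600 nm taken before heating. Peptide concentration was 267 μM at pH 4.0 or pH 7.0.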

[3] = Turbidity of crude library peptides (absorbance at 600 nm); format: physicochemical; conditions: Physical stability of peptides
Outline: as §1

[4] = target: GLP1R (Homo sapiens, UniProt P43220); test: hGLP1R potency, cAMP accumulation in CHO-K1 cells stably overexpressing hGLP1R; format: cell-based; parameters: host or cells: CHO-K1; conditions: for EC50: cAMP accumulation, CHO-K1 cells overexpressing hGLP1R, read-out: hGLP1R pEC50 (converted); for SCTR EC50/GLP1R EC50 ratio: selectivity for hGLP1R over hSCTR, cAMP accumulation in CHO-K1 cells
Sequence of GLP1R (P43220 24-463): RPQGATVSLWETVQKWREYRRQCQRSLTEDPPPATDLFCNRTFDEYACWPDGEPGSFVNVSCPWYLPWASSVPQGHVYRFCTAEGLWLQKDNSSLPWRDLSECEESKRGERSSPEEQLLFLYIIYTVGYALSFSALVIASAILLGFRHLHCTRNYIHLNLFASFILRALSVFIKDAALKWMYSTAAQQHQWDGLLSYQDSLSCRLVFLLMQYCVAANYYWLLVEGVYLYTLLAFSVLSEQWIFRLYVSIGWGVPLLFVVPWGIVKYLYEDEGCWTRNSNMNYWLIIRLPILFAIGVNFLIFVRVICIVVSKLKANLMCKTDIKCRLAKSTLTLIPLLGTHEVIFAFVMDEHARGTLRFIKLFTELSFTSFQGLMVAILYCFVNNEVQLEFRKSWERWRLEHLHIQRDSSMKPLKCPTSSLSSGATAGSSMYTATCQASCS
Outline: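 In the presence of 0.5 mM IBMX, compounds stimulated the cells for 30 minutes at room temperature. Accumulated cAMP was then detected by TR-FRET, with EC50 values fitted by variable-slope nonlinear regression.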

| EC50 [1] [nM] | Fibril formation [2] | Turbidity (pH 7) [3] | EC50 [4] [nM] | SCTR EC50/GLP1R EC50 ratio [4] | Structure (SMILES) |
| --- | --- | --- | --- | --- | --- |
| 15800 | 10160 | 0.08 | 0.02 | 840427 | CC(C)C[C@H](NC(=O)[C@H](Cc1ccccc1)NC(=O)[C@H](CCCNC(=N)N)NC(=O)[C@H](CCC(N)=O)NC(=O)[C@H](CCC(=O)O)NC(=O)[C@H](C)NC(=O)[C@H](C)NC(=O)[C@H](CCC(=O)O)NC(=O)[C@H](CCC(=O)O)NC(=O)[C@H](CCCCNC(=O)COCCOCCNC(=O)COCCOCCNC(=O)CC[C@H](NC(=O)CCCCCCCCCCCCCCCCCCC(=O)O)C(=O)O)NC(=O)[C@H](CC(C)C)NC(=O)[C@H](Cc1ccc(O)cc1)NC(=O)[C@H](CO)NC(=O)[C@@H](NC(=O)[C@H](CC(=O)O)NC(=O)[C@H](CO)NC(=O)[C@@H](NC(=O)[C@H](Cc1ccccc1)NC(=O)[C@@H](NC(=O)CNC(=O)[C@H](CCC(=O)O)NC(=O)C(C)(C)NC(=O)[C@@H](N)Cc1c[nH]cn1)[C@@H](C)O)[C@@H](C)O)C(C)C)C(=O)N[C@@H](CCC(=O)O)C(=O)N[C@@H](Cc1c[nH]cn1)C(=O)N[C@@H](CC(C)C)C(=O)N[C@H](C(N)=O)C(C)C [compound 95] (H-H[Aib]EGTFTSDVSYLK([AEEA-AEEA-γGlu-C20 diacid])EEAAEQRFLEHLV-NH2) |
| 398 | 8019 | 0.09 | 0.0126 | 31579 | CC(C)C[C@H](NC(=O)[C@H](Cc1ccccc1)NC(=O)[C@H](CCCNC(=N)N)NC(=O)[C@H](CCC(N)=O)NC(=O)[C@H](C)NC(=O)[C@H](C)NC(=O)[C@H](C)NC(=O)[C@H](CCC(=O)O)NC(=O)[C@H](CCC(=O)O)NC(=O)[C@H](CCCCNC(=O)COCCOCCNC(=O)COCCOCCNC(=O)CC[C@H](NC(=O)CCCCCCCCCCCCCCCCCCC(=O)O)C(=O)O)NC(=O)[C@H](CC(C)C)NC(=O)[C@@H](NC(=O)[C@H](CO)NC(=O)[C@@H](NC(=O)[C@H](CC(=O)O)NC(=O)[C@H](CO)NC(=O)[C@@H](NC(=O)[C@H](Cc1ccccc1)NC(=O)[C@@H](NC(=O)CNC(=O)[C@H](CCC(=O)O)NC(=O)C(C)(C)NC(=O)[C@@H](N)Cc1c[nH]cn1)[C@@H](C)O)[C@@H](C)O)C(C)C)[C@@H](C)O)C(=O)N[C@@H](CCC(=O)O)C(=O)N[C@@H](Cc1c[nH]cn1)C(=O)N[C@@H](CC(C)C)C(=O)N[C@H](C(N)=O)C(C)C [compound 96] (H-H[Aib]EGTFTSDVSTLK([AEEA-AEEA-γGlu-C20 diacid])EEAAAQRFLEHLV-NH2) |
| 1580 | 10277 | 0.09 | 0.01 | 145949 | CC(C)C[C@H](NC(=O)[C@H](Cc1ccccc1)NC(=O)[C@H](CCCNC(=N)N)NC(=O)[C@H](CCC(N)=O)NC(=O)C(C)(C)NC(=O)[C@H](C)NC(=O)[C@H](C)NC(=O)[C@H](CCC(=O)O)NC(=O)[C@H](CCC(=O)O)NC(=O)[C@H](CCCCNC(=O)COCCOCCNC(=O)COCCOCCNC(=O)CC[C@H](NC(=O)CCCCCCCCCCCCCCCCCCC(=O)O)C(=O)O)NC(=O)[C@H](CC(C)C)NC(=O)[C@H](CCC(=O)O)NC(=O)[C@H](CO)NC(=O)[C@@H](NC(=O)[C@H](CC(=O)O)NC(=O)[C@H](CO)NC(=O)[C@@H](NC(=O)[C@H](Cc1ccccc1)NC(=O)[C@@H](NC(=O)CNC(=O)[C@H](CCC(=O)O)NC(=O)C(C)(C)NC(=O)[C@@H](N)Cc1c[nH]cn1)[C@@H](C)O)[C@@H](C)O)C(C)C)C(=O)N[C@@H](CCC(=O)O)C(=O)N[C@@H](Cc1c[nH]cn1)C(=O)N[C@@H](CC(C)C)C(=O)N[C@H](C(N)=O)C(C)C [compound 97] (H-H[Aib]EGTFTSDVSELK([AEEA-AEEA-γGlu-C20 diacid])EEAA[Aib]QRFLEHLV-NH2) |
| 1260 | 10655 | 0.09 | 0.0251 | 48854 | CC(C)C[C@H](NC(=O)[C@H](Cc1ccccc1)NC(=O)[C@H](CCCNC(=N)N)NC(=O)[C@H](CCC(N)=O)NC(=O)[C@H](C)NC(=O)[C@H](C)NC(=O)[C@H](C)NC(=O)[C@H](CCC(=O)O)NC(=O)[C@H](CCC(=O)O)NC(=O)[C@H](CCCCNC(=O)COCCOCCNC(=O)COCCOCCNC(=O)CC[C@H](NC(=O)CCCCCCCCCCCCCCCCCCC(=O)O)C(=O)O)NC(=O)[C@H](CC(C)C)NC(=O)[C@H](CCC(=O)O)NC(=O)[C@H](CO)NC(=O)[C@@H](NC(=O)[C@H](CC(=O)O)NC(=O)[C@H](CO)NC(=O)[C@@H](NC(=O)[C@H](Cc1ccccc1)NC(=O)[C@@H](NC(=O)CNC(=O)[C@H](CCC(=O)O)NC(=O)C(C)(C)NC(=O)[C@@H](N)Cc1c[nH]cn1)[C@@H](C)O)[C@@H](C)O)C(C)C)C(=O)N[C@@H](CCC(=O)O)C(=O)N[C@@H](Cc1c[nH]cn1)C(=O)N[C@@H](CC(C)C)C(=O)N[C@H](C(N)=O)C(C)C [compound 98] (H-H[Aib]EGTFTSDVSELK([AEEA-AEEA-γGlu-C20 diacid])EEAAAQRFLEHLV-NH2) |
| 794 | 87225 | 0.17 | 0.0158 | 52372 | CC(C)C[C@H](NC(=O)[C@H](CCC(=O)O)NC(=O)[C@H](CCCCNC(=O)COCCOCCNC(=O)COCCOCCNC(=O)CC[C@H](NC(=O)CCCCCCCCCCCCCCCCCCC(=O)O)C(=O)O)NC(=O)[C@H](CC(C)C)NC(=O)[C@H](CCC(=O)O)NC(=O)[C@H](CO)NC(=O)[C@@H](NC(=O)[C@H](CC(=O)O)NC(=O)[C@H](CO)NC(=O)[C@@H](NC(=O)[C@H](Cc1ccccc1)NC(=O)[C@@H](NC(=O)CNC(=O)[C@H](CCC(=O)O)NC(=O)C(C)(C)NC(=O)[C@@H](N)Cc1c[nH]cn1)[C@@H](C)O)[C@@H](C)O)C(C)C)C(=O)N[C@@H](C)C(=O)N[C@@H](C)C(=O)N[C@@H](CCC(N)=O)C(=O)N[C@@H](CCC(N)=O)C(=O)N[C@@H](CCCNC(=N)N)C(=O)N[C@@H](Cc1ccccc1)C(=O)N[C@@H](CC(C)C)C(=O)N[C@@H](CCC(=O)O)C(=O)N[C@@H](Cc1c[nH]cn1)C(=O)N[C@@H](CC(C)C)C(=O)N[C@H](C(N)=O)C(C)C [compound 99] (H-H[Aib]EGTFTSDVSELK([AEEA-AEEA-γGlu-C20 diacid])ELAAQQRFLEHLV-NH2) |
| 794 | 24482 | 0.08 | 0.126 | 6301 | CC(C)C[C@H](NC(=O)[C@H](Cc1ccccc1)NC(=O)[C@H](CCCNC(=N)N)NC(=O)[C@H](CCC(N)=O)NC(=O)[C@H](CCC(N)=O)NC(=O)[C@H](C)NC(=O)[C@H](C)NC(=O)[C@H](Cc1ccccc1)NC(=O)[C@H](CCC(=O)O)NC(=O)[C@H](CCCCNC(=O)COCCOCCNC(=O)COCCOCCNC(=O)CC[C@H](NC(=O)CCCCCCCCCCCCCCCCCCC(=O)O)C(=O)O)NC(=O)[C@H](CC(C)C)NC(=O)[C@@H](NC(=O)[C@H](CO)NC(=O)[C@@H](NC(=O)[C@H](CC(=O)O)NC(=O)[C@H](CO)NC(=O)[C@@H](NC(=O)[C@H](Cc1ccccc1)NC(=O)[C@@H](NC(=O)CNC(=O)[C@H](CCC(=O)O)NC(=O)C(C)(C)NC(=O)[C@@H](N)Cc1c[nH]cn1)[C@@H](C)O)[C@@H](C)O)C(C)C)[C@@H](C)O)C(=O)N[C@@H](CCC(=O)O)C(=O)N[C@@H](Cc1c[nH]cn1)C(=O)N[C@@H](CC(C)C)C(=O)N[C@H](C(N)=O)C(C)C [compound 100] (H-H[Aib]EGTFTSDVSTLK([AEEA-AEEA-γGlu-C20 diacid])EFAAQQRFLEHLV-NH2) |
| 1000 | 8172 | 0.08 | 0.2 | 5030 | CC(C)C[C@H](NC(=O)[C@H](Cc1ccccc1)NC(=O)[C@H](CCCNC(=N)N)NC(=O)[C@H](CCC(N)=O)NC(=O)C(C)(C)NC(=O)[C@H](C)NC(=O)[C@H](C)NC(=O)[C@@H](NC(=O)[C@H](CCC(=O)O)NC(=O)[C@H](CCCCNC(=O)COCCOCCNC(=O)COCCOCCNC(=O)CC[C@H](NC(=O)CCCCCCCCCCCCCCCCCCC(=O)O)C(=O)O)NC(=O)[C@H](CC(C)C)NC(=O)[C@@H](NC(=O)[C@H](CO)NC(=O)[C@@H](NC(=O)[C@H](CC(=O)O)NC(=O)[C@H](CO)NC(=O)[C@@H](NC(=O)[C@H](Cc1ccccc1)NC(=O)[C@@H](NC(=O)CNC(=O)[C@H](CCC(=O)O)NC(=O)C(C)(C)NC(=O)[C@@H](N)Cc1c[nH]cn1)[C@@H](C)O)[C@@H](C)O)C(C)C)C(C)C)[C@@H](C)O)C(=O)N[C@@H](CCC(=O)O)C(=O)N[C@@H](Cc1c[nH]cn1)C(=O)N[C@@H](CC(C)C)C(=O)N[C@H](C(N)=O)C(C)C [compound 101] (H-H[Aib]EGTFTSDVSVLK([AEEA-AEEA-γGlu-C20 diacid])ETAA[Aib]QRFLEHLV-NH2) |
